Assay results from patent US20240058240A1, “COMPOUNDS AS SELF-TANNING SUBSTANCES AND TANNING COMPOSITIONS THEREOF” (CHEMCOM S.A., priority 2020, published 2024).

Tests used:
OR7C1 = target: T1, OR7C1 (Homo sapiens, UniProt O76099); test: Luciferase-based CRE gene reporter assay, dose-response on OR7C1; type: cell-based; details: negative logarithm of the EC50 in Moles; semi-logarithmic dilutions from 1 mM to 316 nM on OR7C1
T1 construct: transfected with a plasmid containing the CRE-luciferase and a plasmid containing the olfactory receptor; expressed in transfected cells; host or cells: HEK293T-RTP1A1/RTP2 (HEK293T stably expressing the chaperones RTP1A1 and RTP2)
T1 sequence (O76099 1-320): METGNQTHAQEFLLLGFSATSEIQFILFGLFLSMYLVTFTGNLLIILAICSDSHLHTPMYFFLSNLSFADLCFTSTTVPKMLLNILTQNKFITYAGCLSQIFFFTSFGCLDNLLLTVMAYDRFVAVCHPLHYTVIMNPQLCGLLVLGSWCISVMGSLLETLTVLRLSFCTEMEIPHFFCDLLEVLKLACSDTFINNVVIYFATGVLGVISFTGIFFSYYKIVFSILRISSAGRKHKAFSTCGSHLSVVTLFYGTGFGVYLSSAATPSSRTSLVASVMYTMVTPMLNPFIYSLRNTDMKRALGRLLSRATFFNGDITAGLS
Method: HEK293T-RTP1A1/RTP2 cells were maintained in minimal essential medium (EMEM, Lonza) containing 10% fetal bovine serum (M10). These cells were generated by transfecting HEK293T (Thermofisher Scientific, cat ref: R70007) with an expression vector containing the sequences of the chaperone proteins RTP1A1 and RTP2 and a resistance gene to puromycin, using Lipofectamine 2000. The recombinant cell population, used in these experiments, was selected by adding 10 μg/ml of puromycin into the culture medium and subsequently subcloned (WO 2014/191047 A1).
Potential OR7C1 agonists were diluted at a concentration of 1 mole/liter (M) into an organic solvent such as Dimethyl Sulfoxide (DMSO) or Ethanol to generate stock solutions. […]
For concentration-response analysis, serial dilutions of the tested molecules were prepared from stock solutions in EMEM plated into 96-well plates.
For the dose-response analysis, a Luciferase-based gene reporter assay (Promega, Leiden, the Netherlands) was used. Briefly, cells were platted on poly-D-lysine-coated 96-well plates and transfected with a plasmid containing the CRE-luciferase and a plasmid containing the olfactory receptor. Sixteen hours after transfection, the culture medium was replaced by serum-free EMEM containing the tested compounds at a determined concentration. After four hours of incubation at 37° C., cells were lysed and processed for luminescence measurement. Luminescence emission was recorded. Results were expressed as luciferase activity ([…] (RLU)) or as percentage of the response induced by 10 μM of the adenylate cyclase activator Forskolin. An empty plasmid is used as negative control.
Dose-response analyses using the luciferase-based reporter assay were performed using semi-logarithmic serial dilutions of the compounds, from 1 mM to 316 nM, on OR7C1. 46 compounds were tested in concentration-response analyses. In each experiment, an empty vector (pEFIBRHO) was used as negative control. Values are given as the negative logarithm of the EC50 in Moles.

human skin explants = test: Melanogenesis in human skin living explants (Masson's Fontana staining, image analysis); type: cell-based; details: for melanogenesis: compared with chronic UVA; for increase of melanin content in the basal layer of the epidermis (image analysis, stained surface): D6, explants phototype II, p<0.01
Method: Human skin explants of an average diameter of 12 mm (±1 mm) were prepared on an abdoplasty coming from a person (reference: P2237AB47—phototype II) or person (reference P2196-AB61, phototype III). The explants were kept in survival in BEM culture medium (BIO-EC's Explants Medium) at 37° C. in a humid, 5%-CO2 atmosphere.
The Ambermax was diluted in 0.1% ethanol at the following concentrations: 0.3 μM, 1 μM, 3 μM, 10 μM, 15 μM, 30 μM and 100 μM. The diluted solutions were stored at 4° C. during the study.
The explants were treated for 10 days with Ambermax (see products application below) or with no treatment.
On day 0 (DO), day 3 (D3), day 5 (D5), day 7 (D7) and day 10 (D10), the tested products (compounds for use in the invention) were 1) applied topically using a small spatula based on 2 μl per explant (2 mg per cm^2) at the indicated concentrations, 2) applied intradermatically by injections into the dermis using a syringe with 20 μL of product for each explant or 3) applied systemically by dilutions of the compound of invention in the culture media at the indicated concentration. […] The culture medium was half renewed (1 ml/well) on day 3, day 5, day 7 and day 10.
On day 0 (D0), D2, D3, D6, and D8, the tested products (compounds for use in the invention) were applied topically using a small spatula on the basis of 2 μl per explant (2 mg per cm^2). […] The culture medium was half renewed (1 ml/well) on D2, D3, D6 and D8.
After fixation for 24 hours in buffered formalin solution, the samples were dehydrated and impregnated in paraffin using a Leica PEARL dehydration automat. The samples were then paraffin-embedded using a Leica EG 1160 embedding station. 5-μm-thick sections of paraffin-embedded formol fixed sections were realized using a Leica RM 2125 Minot-type microtome, and the sections were then mounted on Superfrost® Plus glass slides. Microscopical observations were realized using a Leica DMLB, a BX43 or BX63 Olympus microscope. Pictures were digitized with an Olympus DP72 or DP74 camera and the Cell^D or cellSens data storing software.
Melanin was visualized after silver impregnation according to Masson's Fontana staining method on formalin-fixed paraffin-embedded (FFPE) skin sections. The staining was assessed by microscopical observation and image analysis of specific batches. Concerned batches: T0, (TUV, P1→P10) on D5 or D6 and D10.
The images analyses were performed on all the images of each batch, according to the following method using Cell^D or cellSens software:
For each batch of explants, the percentage of the region of interest covered by the staining (stained surface percentage) is determined by image analysis according to the previously described process.
Stained surfaces comparisons: the stained surface percentage (Surf %) for each treatment is compared to the untreated condition=>P vs T. The same comparisons are made for the induced batches with or without treatment=>T vs TUV.
The effects ex vivo was shown by treating human biopsies for 10 days (human living explants: 12 mm+/−1, donor, skin type III) with a systemic application, intradermic injections or a topical application of compounds according to embodiments of the invention (Ambermax). Concentrations of 1, 5 and 10 μM of this compound were used for systemic application and intradermic injections on the human explants. For topical application, biopsies were treated with 10, 30, and 100 μM of Ambermax. As control, non-treated explants or/and explants exposed to chronic UVA-irradiations were used as described in the experimental procedures.

Ambermax [Compound 16] was tested, and the “-LogEC50 (average n > 3)” value (OR7C1) was > 8, the “enhancement of melanogenesis (microscopical observation and semi-quantification of melanin staining)” value (human skin explants; FFPE skin sections, without UVs exposure) was “very effective to enhance melanogenesis without UVs exposure” and the “most effective concentration (melanogenesis)” value (human skin explants; intradermal injection for 10 days) was 1 µM. The melanogenesis (human skin explants; intradermal injection, 1 μM and 10 μM, after 5 days) was “increase of melanogenesis slightly weaker than that achieved with chronic UVA”, the “melanin content present in the basal layer in skin explants” value (human skin explants; second batch of explants, phototype II, topical) was “induced an increase of the melanin content present in the basal layer” and the “most efficient concentration to stimulate melanin synthesis” value (human skin explants; systemic treatment, day 10) was 1 µM. For the same substance, the “increase of melanin content in the basal layer of the epidermis (image analysis, stained surface)” value (human skin explants; topical 10 μM) was 152%, the “increase of melanin content in the basal layer of the epidermis (image analysis, stained surface)” value (human skin explants; topical 15 μM) was 160% and the melanogenesis (human skin explants; topical treatment, 10 μM, 30 μM and 100 μM, 10 days) was “moderate melanogenesis induction, slightly lower than that obtained with of chronic UVA”. For the same substance, the melanogenesis (human skin explants; topical treatment, 10 μM, 5 days) was “increase in melanogenesis comparable to that obtained with chronic UVA irradiation”.
